# From patent US4518611A, “2-Furylbutyrolactone modulation of the immune system in mammals” (priority 1983, dated 1985)
# Read-outs that look alike come from different tables or passages of the source.
# How the values were obtained:
# spleen lymphocytes [1] = settings: for stimulation of DNA synthesis (in words): BSA
# Text: (§1) The effect of the compounds of this invention on the immune response to specific antigens involves immunization of mice with specific antigens such as bovine serum albumin (BSA) or keyhole limpet hemocyanin (KLH). Following immunization, it is possible to assess the cell-mediated or humoral (antibody) immune response to these antigens by various methods:
# (1) Lymphocyte stimulation assays can be performed using varying concentrations of the specific antigens as mitogens in the lymphocyte stimulation microculture system described above. The only difference is that the incubation period is extended to five days instead of three as for the polyclonal mitogens.
# (§2) Mice of the C57BL/6 strain are given i.p. injections of either 50, 100, 200 or 400 mg/kg of Cpd. 1 or buffer for twelve days (days 1-12). An antigen, bovine serum albumin (BSA), is administered intraperitoneally with Freund's Complete Adjuvant (FCA) on days 1, 7 and 14. Blood samples are taken for assay of the antibody response on days 0, 5, 13, and 19.
# KLH antibody response = settings: for increase of antibody titer over control (fold): 200 and 400 mg/kg
# Text: as §1
# (§3) (2) Antibody response to soluble antigens such as BSA or KLH can be quantitated using a micro-ELISA solid phase heterogeneous immunoassay. The assay can be designed to quantitate class specific immunoglobulins (i.e., IgG or IgM).
# Mice of the C57BL/6 strain are given i.p. injections of either 50, 100, 200 or 400 mg/kg of Cpd. 1 or buffer for ten days (days 1-10). An antigen, keyhole limpet hemocyanin (KLH), is administered intraperitoneally with Freund's Complete Adjuvant (FCA) on days 1, 7, and 13. Blood samples are taken for assay of the antibody response on days 0, 5, 12, and 17. Spleens are removed, lymphocytes isolated and a lymphocyte stimulation assay with PHA, Con-A or KLH antigen as the mitogens is performed on day 17 of the experiment.
# spleen lymphocytes [2] = settings: 7 days
# Method: The purpose of this assay is to challenge lymphocytes in microcultures with one or more polyclonal mitogens at concentrations that will induce mitogenesis within 72 hours of stimulation.
# In the mouse model, spleens are removed from different strains of mice and the spleen cells are teased free and suspended in RPMI-1640 tissue culture medium at a concentration of usually […]. These cells are dispensed at a concentration of 5.0×10^5 cells per microculture well in a 96 well flat bottom 96 well tissue culture plate. All testing of the compounds of this invention or mitogens are done in replicates of 10. The cells are then treated with PHA, Con-A, specific antigens, or buffer only. If in vitro testing is done, varying concentrations of the compounds of this invention or buffer only are added to the cells as well. After treatment with the mitogens and/or compounds of this invention, the cells are incubated for 72 hours. The response of these cells to mitogens and/or the compounds of this invention is assessed using ^14 C-thymidine labeling on the fourth day at a concentration of 0.01 μCi/well. The labeled cells are harvested using a lymphocyte harvestor and placed onto fibrous paper discs. A scintillation cocktail is added to vials containing the discs and the results are obtained using a LKB-liquid scintillation counter (Model 1216/Rackbeta II). The data is expressed as a ratio of the cpm of the mitogen stimulated group to the control (nonmitogen) treated group=lymphocyte stimulation index (LSI).
# The lymphocyte stimulation assay may be performed directly on spleen cells obtained from various strains of mice not treated with the compounds of this invention or on lymphocytes obtained from human […]. […] Alternatively, the mice may be treated in vivo with the compounds of this invention by intraperitoneal multi-dose schedules, followed by sacrifice and harvesting spleen lymphocytes. These cells are then tested for their response to polyclonal mitogens or specific antigens used to immunize the mice. In this system however, no additional compound is added to the in vitro lymphocyte stimulation assay system.
# Two strains of mice, C57BL/6 and BDF1 are treated for seven days with i.p. administration of either 25, 50, 100, 200, or 400 mg/kg of Cpd. 1 or just buffer. This is followed on the eighth day by a lymphocyte stimulation assay.
# BSA antibody response = tested on: BSA antibody response
# Text: as §1, §3
# The cut-off for the titer was the highest dilution of mouse serum yielding on O.D.≤0.1 when read on the MR-600 Dynatech micro-ELISA reader.
# as §2
structure (smiles),measurement,setting,value
"Cc1ccc(C2(O)C(=O)OC3C(O)COC32O)o1.Cc1ccc(C2(O)C(=O)OC3C(O)COC32O)o1.O=C1CCC(=O)O1 (centres unmarked) [Cpd. 1, 2-furylbutyrolactone:succinic anhydride]",Lymphocyte Stimulation Index,"spleen lymphocytes [1]; 50 mg/kg, BSA 0 μg/well, Day 19",.26
same,stimulation of DNA synthesis (in words),"spleen lymphocytes [1]; 50 mg/kg, day 19",This effect has waned by day 19
same,Lymphocyte Stimulation Index,"spleen lymphocytes [1]; 100 mg/kg, BSA 0 μg/well, Day 19",4.1
same,Lymphocyte Stimulation Index,"spleen lymphocytes [1]; 100 mg/kg, BSA 0.01 μg/well, Day 13",9.8
same,Lymphocyte Stimulation Index,"spleen lymphocytes [1]; 100 mg/kg, BSA 1.0 μg/well, Day 19",.26
same,Lymphocyte Stimulation Index,"spleen lymphocytes [1]; 200 mg/kg, BSA 0 μg/well, Day 19",0.42
same,Lymphocyte Stimulation Index,"spleen lymphocytes [1]; 200 mg/kg, BSA 1 μg/well, Day 13",14.0
same,Lymphocyte Stimulation Index,"spleen lymphocytes [1]; 400 mg/kg, BSA 0 μg/well, Day 19",5.0
same,stimulation of DNA synthesis (in words),spleen lymphocytes [1]; day 13,Only the 50 mg/kg dose shows significant stimulation of DNA synthesis on day 13 compared to controls
same,Micro-ELISA Titer,"KLH antibody response; 50 mg/kg i.p., Day 5",N/R
same,Micro-ELISA Titer,"KLH antibody response; 50 mg/kg i.p., Prebleed",N/R
same,Micro-ELISA Titer,"KLH antibody response; 100 mg/kg i.p., Day 5",N/R
same,Micro-ELISA Titer,"KLH antibody response; 100 mg/kg i.p., Prebleed",N/R
same,Micro-ELISA Titer,"KLH antibody response; 200 mg/kg i.p., Day 5",N/R
same,Micro-ELISA Titer,"KLH antibody response; 200 mg/kg i.p., Prebleed",N/R
same,Micro-ELISA Titer,"KLH antibody response; 400 mg/kg i.p., Day 5",N/R
same,Micro-ELISA Titer,"KLH antibody response; 400 mg/kg i.p., Prebleed",N/R
same,increase of antibody titer over control (fold),KLH antibody response; day 12,four-fold
same,increase of antibody titer over control (fold),KLH antibody response; day 17,eight-fold
same,"Lymphocyte Stimulation Index, Con-A",spleen lymphocytes [2]; 25 mg/kg i.p.,4.3
same,"Lymphocyte Stimulation Index, Control (buffer, pH 8.05)",spleen lymphocytes [2]; 25 mg/kg i.p.,0.8
same,"Lymphocyte Stimulation Index, PHA",spleen lymphocytes [2]; 25 mg/kg i.p.,13.8
same,"Lymphocyte Stimulation Index, Con-A",spleen lymphocytes [2]; 50 mg/kg i.p.,21.6
same,"Lymphocyte Stimulation Index, Control (buffer, pH 8.05)",spleen lymphocytes [2]; 50 mg/kg i.p.,0.9
same,"Lymphocyte Stimulation Index, PHA",spleen lymphocytes [2]; 50 mg/kg i.p.,52.1
same,"Lymphocyte Stimulation Index, Con-A",spleen lymphocytes [2]; 100 mg/kg i.p.,17.9
same,"Lymphocyte Stimulation Index, Control (buffer, pH 8.05)",spleen lymphocytes [2]; 100 mg/kg i.p.,0.7
same,"Lymphocyte Stimulation Index, PHA",spleen lymphocytes [2]; 100 mg/kg i.p.,48.7
same,"Lymphocyte Stimulation Index, Con-A",spleen lymphocytes [2]; 200 mg/kg i.p.,2.9
same,"Lymphocyte Stimulation Index, Control (buffer, pH 8.05)",spleen lymphocytes [2]; 200 mg/kg i.p.,0.8
same,"Lymphocyte Stimulation Index, PHA",spleen lymphocytes [2]; 200 mg/kg i.p.,7.8
same,"Lymphocyte Stimulation Index, Con-A",spleen lymphocytes [2]; 400 mg/kg i.p.,0.9
same,"Lymphocyte Stimulation Index, Control (buffer, pH 8.05)",spleen lymphocytes [2]; 400 mg/kg i.p.,0.9
same,"Lymphocyte Stimulation Index, PHA",spleen lymphocytes [2]; 400 mg/kg i.p.,1.1
same,Micro-ELISA Titer,"BSA antibody response; 50 mg/kg i.p., Day 5",N/R
same,Micro-ELISA Titer,"BSA antibody response; 50 mg/kg i.p., Prebleed",N/R
same,antibody titer versus control (in words),"BSA antibody response; 50 mg/kg, day 19",A slight increase of antibody titer over the control
same,Micro-ELISA Titer,"BSA antibody response; 100 mg/kg i.p., Day 5",N/R
same,Micro-ELISA Titer,"BSA antibody response; 100 mg/kg i.p., Prebleed",N/R
same,Micro-ELISA Titer,"BSA antibody response; 200 mg/kg i.p., Day 5",N/R
same,Micro-ELISA Titer,"BSA antibody response; 200 mg/kg i.p., Prebleed",N/R
same,Micro-ELISA Titer,"BSA antibody response; 400 mg/kg i.p., Day 5",N/R
same,Micro-ELISA Titer,"BSA antibody response; 400 mg/kg i.p., Prebleed",N/R
same,antibody response versus control (in words),"BSA antibody response; 400 mg/kg, day 19",the antibody responses to BSA are equal at the 0 mg/kg and 400 mg/kg dose
same,stimulation of antibody response (in words),"BSA antibody response; 50 and 100 mg/kg, day 13",only a slight amount of stimulation
same,increase over controls of antibody titer (fold),"BSA antibody response; 100 and 200 mg/kg, day 19",16 fold
same,stimulation of antibody response (fold),"BSA antibody response; 200 and 400 mg/kg, day 13",four-fold
